Assays:
Half-life in plasma = assay type: in vitro ADME; details: unit inferred, unit assumed
[1] = tested on: Calpain-mediated breakdown of spectrin in platelets; experiment: Platelet membrane permeability assay; assay type: cell-based, rat; parameters: unit not given here; details: numeric value, unit not given
Method: Platelet membrane permeability assay. Calpain-mediated breakdown of spectrin was measured by quantitative densitometry of the calpain-specific 150/155 kDa spectrin fragment doublet [see Siman et al., Proc. Natl. Acad. Sci. USA 81, 3572-3576 (1984)]. Platelets were isolated by a modification of the method of Ferrell and Martin [J. Biol. Chem. 264, 20723-20729 (1989)]. Blood (15-20 ml) was drawn from male Sprague-Dawley rats into 1/10th volume of 100 mM EDTA-citrate, and centrifuged 10 minutes at 2000 rpm in a clinical centrifuge at room temperature. […] Platelets were washed once in 15 ml buffer 1, then resuspended to 10^7 cells/ml in buffer 2 (136 mM NaCl, 2.7 mM KCl, 0.42 mM NaH2 PO4, 12 mM NaHCO3, 2mM MgCl, 1 mg/ml BSA (Sigma), 5.6 mM glucose, 20 mM HEPES (Sigma) pH 7.4) and allowed to "rest" for a minimum of 10 minutes at room temperature before use.
Inhibitors were added from stock solutions made fresh in DMSO. 100 μl platelets, suspended to 10^7 cells/ml in buffer 2, were incubated with 1 μl of an inhibitor solution for 5 minutes at room temperature prior to the addition of 2 mM Ca^2+ and 1 uM A23 187. After 10 minutes total exposure to inhibitor (5 minutes exposure to ionophore) at room temperature, platelets were reisolated at 14,000 rpm for 10 sec in a Beckman microfuge, dissolved in SDS-PAGE sample buffer, and heated to 90° C. for 3 minutes.
Samples were subjected to SDS-PAGE in 4-12% gradient mini gels (Novex) and transferred to nitrocellulose (Schleicher and Schuell 0.45 um) by electroblotting. Filters were blocked for 10 minutes in 0.25% gelatin, 1% BSA, 0.25% triton X100, 0.9% NaCl, 10 mM Tris-Cl pH 7.5, incubated overnight in the same solution containing antibody to rat spectrin, washed 3×10 minutes with 10 mM Tris-Cl pH 7.5, 0.5% triton X100, incubated 4 hours in wash buffer plus alkaline phosphatase conjugated goat anti-rabbit antibody (Biorad), and washed as above. Blots were developed using the Biorad AP conjugate substrate kit. Quantitative densitometry was used to obtain values for the intact spectrin bands and the 150/155 kDa breakdown product doublet.

[2] = target: Calpain II from rabbit muscle; experiment: Inhibition of calpain II (Suc-Leu-Tyr-AMC hydrolysis); assay type: biochemical
Method: (§1) Materials and Methods. HEPES, heparin, and A23187 were obtained from Calbiochem. Suc-Leu-Tyr-AMC and chromogenic substrates were obtained from Sigma. Calpain I was purified from human erythrocytes according to the method of Kitahara (Kitahara et al., J. Biochem. 95, 1759-1766) omitting the Blue-Sepharose step. Calpain II from rabbit muscle and cathepsin B were purchased from Sigma. Papain was purchased from Calbiochem.
(§2) Assay of Inhibitory Potency. Peptide α-ketoamides were assayed as reversible enzyme inhibitors. Various concentrations of inhibitors in Me2 SO were added to the assay mixture which contained buffer and substrate. The reaction was started by the addition of the enzyme and the hydrolysis rates were followed spectrophotometrically or fluorimetrically.
(§3) Calpain I from human erythrocytes and calpain II from rabbit were assayed using Suc-Leu-Tyr-AMC [Sasaki et al., J. Biol. Chem. 259, 12489-12494 (1984); incorporated herein by reference], and the AMC (7-amino-4-methylcoumarin) release was followed fluorimetrically (excitation at 380 nm, and emmision at 460 nm). Calpains were assayed in 25 mM Tris pH=8.0, 10 mM CaCl2. Fluorescence was followed using a Gilson FL-1A fluorometer or a Perkin-Elmer 203 Fluorescence spectrometer. Cathepsin B was assayed in 20 mM sodium acetate pH=5.2, 0.5 mM dithiothreitol using Bz-Phe-Val-Arg-p-nitroanilide as substrate. Alternately, cathepsin B was assayed with Z-Arg-Arg-AFC [Barrett and Kirschke, Methods Enzymol. 80, 535-561 (1981); incorporated herein by reference], and the AFC (7-amino-4-trifluoromethylcoumarin) release was followed fluorimetrically (excitation at 400 nm and emmision at 505 nm). Papain was assayed in 100 mM KPO4, 1 mM EDTA, 2.5 mM cysteine pH=6.0 using Bz-Arg-AMC or Bz-Arg-NA [Kanaoka et al., Chem. Plmrm. Bull. 25, 3126-3128 (1977); incorporated herein by reference] as a substrate. The AMC (7-amino-4-methylcoumarin) release was followed fluorimetrically (excitation at 380 nm, and emmision at 460 nm). Enzymatic hydrolysis rates were measured at various substrate and inhibitor concentrations, and KI values were determined by either Lineweaver-Burk plots or Dixon plots.
(§4) A 0.1M Hepes, 0.5M NaCl, pH 7.5 buffer was utilized for human leukocyte elastase (HLE), porcine pancreatic elastase (PPE), chymotrypsin and cathepsin G. A 0.1 Hepes, 0.01M CaCl2, pH 7.5 buffer was utilized for trypsin, plasmin, and coagulation enzymes. A 50 mM Tris-HCl, 2 mM EDTA, 5 mM cysteine, pH 7.5 was used as a buffer for papain. A 88 mM KH2 PO4, 12 mM Na2 HPO4, 1.33 mM EDTA, 2.7 mM cysteine, pH 6.0 solution was used as a buffer for cathepsin B. A 20 mM Hepes, 10 mM CaCl2, 10 mM mercatoethanol, pH 7.2 buffer was utilized for calpain I and calpain II.

cathepsin B = experiment: Inhibition of cathepsin B; assay type: biochemical; details: read-out: KI Cath B
Method: as §1, §2, §3, §4

chymotrypsin = chymotrypsin (Bos taurus, UniProt P00766, DEL14-15/DEL147-148); experiment: Inhibition of chymotrypsin (Suc-Val-Pro-Phe-NA hydrolysis); assay type: biochemical, bovine
Method: as §2, §4
(§5) HLE and PPE were assayed with MeO-Suc-Ala-Ala-Pro-Val-NA and Suc-Ala-Ala-Ala-NA, respectively [Nakajima et al., J. Biol. Chem. 254, 4027-4032 (1979); incorporated herein by reference]. Human leukocyte cathepsin G and chymotrypsin Aα were assayed with Suc-Val-Pro-Phe-NA [Tanaka et al., Biochemistry 24, 2040-2047 (1985); incorporated herein by reference]. The hydrolysis of peptide 4-nitroanilides was measured at 410 nm [ε410 =8800 M^-1 cm^-1; Erlanger et al., Arch. Biochem. Biophys. 95, pp 271-278 (1961); incorporated herein by reference]. Trypsin, thrombin, human plasma kallikrein, porcine pancreatic kallikrein, human factor XIa, and human plasmin were assayed with Z-Arg-SBzl or Z-Gly-Arg-SBu-i [McRae et al., Biochemistry 20, 7196-7206 (1981); incorporated herein by reference]. All peptide thioester hydrolysis rates were measured with assay mixtures containing 4,4'-dithiodipyridine [ε324 =19800 M^-1 cm^-1; Grasetti & Murray, Arch. Biochem. Biophys. 119, 41-49 (1967); incorporated herein by reference].

Half-life in liver = assay type: in vitro ADME; details: unit inferred, unit assumed
[3] = target: porcine pancreatic elastase (PPE) (Sus scrofa, UniProt P00772); experiment: Inhibition of PP elastase (Suc-Ala-Ala-Ala-NA hydrolysis); assay type: biochemical
Method: as §2, §4, §5

porcine pancreatic elastase (PPE), sequence (P00772 27-266): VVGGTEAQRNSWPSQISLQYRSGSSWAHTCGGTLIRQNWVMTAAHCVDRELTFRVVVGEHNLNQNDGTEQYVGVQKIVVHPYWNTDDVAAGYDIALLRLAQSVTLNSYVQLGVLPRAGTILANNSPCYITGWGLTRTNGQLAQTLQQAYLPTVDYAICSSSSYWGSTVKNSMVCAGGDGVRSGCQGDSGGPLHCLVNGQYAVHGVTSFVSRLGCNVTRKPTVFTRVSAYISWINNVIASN

Compound | t 1/2 plasma (Half-life in plasma) [h] | platelet (Activity in the Platelet Assay) [1] | Ki [2] [µM] | Ki (cathepsin B) [µM] | Ki (chymotrypsin) [µM] | t 1/2 liver (Half-life in liver) [h] | Ki [3] [µM]
CCOC(=O)C(=O)[C@H](CC)NC(=O)[C@H](CC(C)C)NC(=O)[C@H](CC(C)C)NC(=O)c1ccc2ccccc2c1 [2-NapCO--Leu--Leu--Abu--COOEt] | 0.417 |  |  |  |  |  | 
CCOC(=O)C(=O)C(CC)NC(=O)C(CC(C)C)NC(=O)C(CC(C)C)NS(=O)(=O)c1ccc2ccccc2c1 (stereo not drawn) [2-NapSO2--Leu--Leu--Abu--COOEt] | > 1 | 100 |  |  |  |  | 
CCOC(=O)C(=O)[C@H](CC)NC(=O)[C@H](CC(C)C)NC(=O)[C@H](CC(C)C)NS(=O)(=O)c1ccc(C)cc1 [Tos--Leu--Leu--Abu--COOEt] | 0.5 | 30 |  |  |  |  | 
CC[C@H](NC(=O)[C@H](CC(C)C)NC(=O)OCc1ccccc1)C(=O)C(=O)NCCc1ccccc1 [Z--Leu--Abu--CONH--(CH2)2 --Ph, Z-Leu-Abu-CONH-(CH2)2 Ph] |  |  | 0.022 |  |  |  | 
CCC(NC(=O)C(CC(C)C)NC(=O)OCc1ccccc1)C(=O)C(=O)NCCO (stereo not drawn) [Z--Leu--Abu--CONH--(CH2)2 OH, Z-Leu-Abu-CONH-(CH2)2 OH] |  |  | 0.078 |  |  |  | 
CC[C@H](NC(=O)[C@H](CC(C)C)NC(=O)OCc1ccccc1)C(=O)C(=O)NCCCN1CCOCC1 [Z--Leu--Abu--CONH--(CH2)3 --Mpl, Z-Leu-Abu-CONH-(CH2)3 --N(CH2 CH2)2 O] |  |  | 0.041 |  |  |  | 
CCCCCCCCNC(=O)C(=O)[C@H](CC)NC(=O)[C@H](CC(C)C)NC(=O)OCc1ccccc1 [Z--Leu--Abu--CONH--(CH2)7 CH3, Z-Leu-Abu-CONH--(CH2)7 CH3] |  |  | 0.019 |  |  |  | 
CCC(NC(=O)C(CC(C)C)NC(=O)OCc1ccccc1)C(=O)C(=O)NCc1ccccc1 (stereo not drawn) [Z--Leu--Abu--CONH--Bzl, Z-Leu-Abu-CONH-Bzl] | > 1 | 1.5 | 0.35 | 2 | > 300 | > 1 | 
CCC(NC(=O)C(CC(C)C)NC(=O)OCc1ccccc1)C(=O)C(=O)NCC(C)C (stereo not drawn) [Z--Leu--Abu--CONH--iBu, Z-Leu-Abu-CONH-iBu] | > 1 | 28 | 0.14 | 4 | > 300 |  | 40
CCCNC(=O)C(=O)[C@H](CC)NC(=O)[C@H](CC(C)C)NC(=O)OCc1ccccc1 [Z--Leu--Abu--CONH--nPr, Z-Leu-Abu-CONH-nPr] | > 1 | 70 | 0.25 | 8 | > 300 | > 1 | 2
CCOC(=O)C(=O)[C@H](CC)NC(=O)[C@H](CC(C)C)NC(=O)OCc1ccccc1 [Z--Leu--Abu--COOEt] | 0.0467 | 42 |  |  |  |  | 
CCC(NC(=O)C(CC(C)C)NC(=O)OCc1ccccc1)C(=O)C(=O)O (stereo not drawn) [Z--Leu--Abu--COOH] | > 1 | 8 |  |  |  | > 1 | 
CCCCOC(=O)C(=O)[C@H](CC)NC(=O)[C@H](CC(C)C)NC(=O)OCc1ccccc1 [Z--Leu--Abu--COOn--Bu] |  | 28 |  |  |  |  | 
CCOC(=O)C(=O)C(CC)NC(=O)C(CC(C)C)NC(=O)C(CC(C)C)NC(=O)OCc1ccccc1 (stereo not drawn) [Z--Leu--Leu--Abu--COOEt] |  | 40 |  |  |  |  | 
CCCCC(NC(=O)C(CC(C)C)NC(=O)OCc1ccccc1)C(=O)C(=O)OCC (stereo not drawn) [Z--Leu--Nle--COOEt] | 0.0617 | 20 |  |  |  |  | 
CCCC(NC(=O)C(CC(C)C)NC(=O)OCc1ccccc1)C(=O)C(=O)OCC (stereo not drawn) [Z--Leu--Nva--COOEt] | 0.0467 | 40 |  |  |  |  | 
CC(C)C[C@H](NC(=O)OCc1ccccc1)C(=O)N[C@@H](Cc1ccccc1)C(=O)C(=O)NCCc1ccccc1 [Z--Leu--Phe--CONH(CH2)2 Ph, Z-Leu-Phe-CONH-(CH2)2 Ph] | > 1 | 3.0 | 0.024 |  |  |  | 
CC(C)C[C@H](NC(=O)OCc1ccccc1)C(=O)N[C@@H](Cc1ccccc1)C(=O)C(=O)NCc1ccccc1 [Z--Leu--Phe--CONH--Bzl, Z-Leu-Phe-CONH-Bzl] |  |  | 0.046 |  |  |  | 
CC(C)CNC(=O)C(=O)[C@H](Cc1ccccc1)NC(=O)[C@H](CC(C)C)NC(=O)OCc1ccccc1 [Z--Leu--Phe--CONH--iBu, Z-Leu-Phe-CONH-iBu] | > 1 | 22 | 0.065 | 4 | 24 |  | 
CCCCNC(=O)C(=O)C(Cc1ccccc1)NC(=O)C(CC(C)C)NC(=O)OCc1ccccc1 (stereo not drawn) [Z--Leu--Phe--CONH--nBu, Z-Leu-Phe-CONH-nBu] | > 1 | 38 | 0.028 | 3 | 8 | > 1 | > 100
CCOC(=O)C(=O)C(Cc1ccccc1)NC(=O)C(CC(C)C)NC(=O)OCc1ccccc1 (stereo not drawn) [Z--Leu--Phe--COOEt, Z-Leu-Phe-COOEt] | 0.13 | 42 |  |  |  |  | 
CC(C)CC(NC(=O)OCc1ccccc1)C(=O)NC(Cc1ccccc1)C(=O)C(=O)O (stereo not drawn) [Z--Leu--Phe--COOH] | > 1 | 6.5 |  |  |  | > 1 | 
